We go through two compounds from ChEMBL document CHEMBL5212743, “Selectivity Literature for EUbOPEN Chemogenomics Library wave 3” (2023).

The structures appear in SMILES notation.

One assay has as its target T1, Adenosine receptor A3 (Homo sapiens, UniProt P0DMS8).
T1 sequence (P0DMS8 whole entry): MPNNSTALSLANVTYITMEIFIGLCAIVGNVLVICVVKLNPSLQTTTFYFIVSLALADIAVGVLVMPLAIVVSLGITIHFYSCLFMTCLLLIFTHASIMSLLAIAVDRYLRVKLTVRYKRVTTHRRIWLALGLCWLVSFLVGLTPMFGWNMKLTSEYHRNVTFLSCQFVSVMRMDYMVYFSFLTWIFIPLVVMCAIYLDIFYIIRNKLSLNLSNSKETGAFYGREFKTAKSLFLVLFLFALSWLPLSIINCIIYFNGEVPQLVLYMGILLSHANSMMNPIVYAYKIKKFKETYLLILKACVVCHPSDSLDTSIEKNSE
As to the kind of experiment: Selectivity interaction (Radioligand binding assay (MDS Pharma Service)) EUB0000296b ADORA3.

Assay [1] has as its target T2, Alpha-2C adrenergic receptor (Homo sapiens, UniProt P18825).
T2 sequence (P18825 whole entry): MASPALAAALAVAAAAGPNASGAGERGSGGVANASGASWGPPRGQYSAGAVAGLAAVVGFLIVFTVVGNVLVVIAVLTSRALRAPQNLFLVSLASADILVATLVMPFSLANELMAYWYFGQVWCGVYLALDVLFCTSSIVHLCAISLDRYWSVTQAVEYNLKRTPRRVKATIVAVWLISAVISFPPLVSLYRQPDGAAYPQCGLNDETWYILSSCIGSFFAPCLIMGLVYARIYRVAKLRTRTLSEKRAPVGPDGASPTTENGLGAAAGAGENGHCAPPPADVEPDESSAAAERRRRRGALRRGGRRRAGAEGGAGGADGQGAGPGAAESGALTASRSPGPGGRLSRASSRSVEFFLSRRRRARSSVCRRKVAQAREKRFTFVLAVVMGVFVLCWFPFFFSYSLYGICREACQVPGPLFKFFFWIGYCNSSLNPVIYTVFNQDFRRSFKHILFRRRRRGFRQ
As to the kind of experiment: Selectivity interaction (Radioligand binding assay (MDS Pharma Service)) EUB0000296b ADRA2C.

Assay [2] has as its target Serine/threonine-protein kinase STK11 (Homo sapiens) (UniProt Q15831). As to the kind of experiment: Selectivity interaction (KinomeScan (DiscoverX)) EUB0000296b STK11. Particulars: at 1 µM.
The target in assay [3] is Polyunsaturated fatty acid 5-lipoxygenase (Homo sapiens, UniProt P09917). As to the kind of experiment: Selectivity interaction (MSD Pharma/Taiwan screen (enzymes and receptors) ) EUB0000296b ALOX5.
Assay [4] addresses Synaptic vesicular amine transporter (Homo sapiens, UniProt Q05940). As to the kind of experiment: Selectivity interaction (Radioligand binding assay (MDS Pharma Service)) EUB0000296b SLC18A2.
Assay [5] has as its target Dual specificity tyrosine-phosphorylation-regulated kinase 1B (Homo sapiens, UniProt Q9Y463). As to the kind of experiment: Selectivity interaction (KinomeScan (DiscoverX)) EUB0000296b DYRK1B. The note with it: at 1 µM.
The target of assay [6] is Mitogen-activated protein kinase 3 (Homo sapiens, UniProt P27361). As to the kind of experiment: Selectivity interaction (MSD Pharma/Taiwan screen (enzymes and receptors) ) EUB0000296b MAPK3.
Mitogen-activated protein kinase 3, sequence (P27361 whole entry): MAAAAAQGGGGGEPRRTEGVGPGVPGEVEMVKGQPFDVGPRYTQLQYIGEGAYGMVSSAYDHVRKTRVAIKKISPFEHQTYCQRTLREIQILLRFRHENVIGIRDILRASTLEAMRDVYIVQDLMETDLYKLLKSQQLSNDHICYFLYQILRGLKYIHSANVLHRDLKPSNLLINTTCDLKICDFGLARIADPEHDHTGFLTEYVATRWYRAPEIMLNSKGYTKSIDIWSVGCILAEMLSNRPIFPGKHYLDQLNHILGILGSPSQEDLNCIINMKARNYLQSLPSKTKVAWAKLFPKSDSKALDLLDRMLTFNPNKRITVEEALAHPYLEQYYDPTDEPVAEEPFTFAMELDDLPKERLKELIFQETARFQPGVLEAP
The target in assay [7] is Mitogen-activated protein kinase 14 (Homo sapiens, UniProt Q16539). As to the kind of experiment: Selectivity interaction (MSD Pharma/Taiwan screen (enzymes and receptors) ) EUB0000296b MAPK14.
Mitogen-activated protein kinase 14, sequence (Q16539 whole entry): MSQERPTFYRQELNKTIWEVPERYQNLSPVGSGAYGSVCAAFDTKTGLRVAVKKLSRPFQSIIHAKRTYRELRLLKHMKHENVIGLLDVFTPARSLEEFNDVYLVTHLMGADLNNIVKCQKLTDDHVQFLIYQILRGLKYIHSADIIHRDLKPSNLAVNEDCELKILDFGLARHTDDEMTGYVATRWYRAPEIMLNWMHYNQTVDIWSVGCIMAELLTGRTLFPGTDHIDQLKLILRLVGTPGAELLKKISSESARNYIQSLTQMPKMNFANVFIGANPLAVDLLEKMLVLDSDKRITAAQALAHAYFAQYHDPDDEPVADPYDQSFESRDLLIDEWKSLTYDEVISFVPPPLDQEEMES
Assay [8] has as its target Sodium-dependent dopamine transporter (Homo sapiens, UniProt Q01959). As to the kind of experiment: Selectivity interaction (Radioligand binding assay (MDS Pharma Service)) EUB0000296b SLC6A3.
The target of assay [9] is eIF-2-alpha kinase GCN2 (Homo sapiens) (UniProt Q9P2K8). As to the kind of experiment: Selectivity interaction (KinomeScan (DiscoverX)) EUB0000296b EIF2AK4. The note with it: at 1 µM.
eIF-2-alpha kinase GCN2 (Homo sapiens), sequence (Q9P2K8 whole entry, the tested form may be a part): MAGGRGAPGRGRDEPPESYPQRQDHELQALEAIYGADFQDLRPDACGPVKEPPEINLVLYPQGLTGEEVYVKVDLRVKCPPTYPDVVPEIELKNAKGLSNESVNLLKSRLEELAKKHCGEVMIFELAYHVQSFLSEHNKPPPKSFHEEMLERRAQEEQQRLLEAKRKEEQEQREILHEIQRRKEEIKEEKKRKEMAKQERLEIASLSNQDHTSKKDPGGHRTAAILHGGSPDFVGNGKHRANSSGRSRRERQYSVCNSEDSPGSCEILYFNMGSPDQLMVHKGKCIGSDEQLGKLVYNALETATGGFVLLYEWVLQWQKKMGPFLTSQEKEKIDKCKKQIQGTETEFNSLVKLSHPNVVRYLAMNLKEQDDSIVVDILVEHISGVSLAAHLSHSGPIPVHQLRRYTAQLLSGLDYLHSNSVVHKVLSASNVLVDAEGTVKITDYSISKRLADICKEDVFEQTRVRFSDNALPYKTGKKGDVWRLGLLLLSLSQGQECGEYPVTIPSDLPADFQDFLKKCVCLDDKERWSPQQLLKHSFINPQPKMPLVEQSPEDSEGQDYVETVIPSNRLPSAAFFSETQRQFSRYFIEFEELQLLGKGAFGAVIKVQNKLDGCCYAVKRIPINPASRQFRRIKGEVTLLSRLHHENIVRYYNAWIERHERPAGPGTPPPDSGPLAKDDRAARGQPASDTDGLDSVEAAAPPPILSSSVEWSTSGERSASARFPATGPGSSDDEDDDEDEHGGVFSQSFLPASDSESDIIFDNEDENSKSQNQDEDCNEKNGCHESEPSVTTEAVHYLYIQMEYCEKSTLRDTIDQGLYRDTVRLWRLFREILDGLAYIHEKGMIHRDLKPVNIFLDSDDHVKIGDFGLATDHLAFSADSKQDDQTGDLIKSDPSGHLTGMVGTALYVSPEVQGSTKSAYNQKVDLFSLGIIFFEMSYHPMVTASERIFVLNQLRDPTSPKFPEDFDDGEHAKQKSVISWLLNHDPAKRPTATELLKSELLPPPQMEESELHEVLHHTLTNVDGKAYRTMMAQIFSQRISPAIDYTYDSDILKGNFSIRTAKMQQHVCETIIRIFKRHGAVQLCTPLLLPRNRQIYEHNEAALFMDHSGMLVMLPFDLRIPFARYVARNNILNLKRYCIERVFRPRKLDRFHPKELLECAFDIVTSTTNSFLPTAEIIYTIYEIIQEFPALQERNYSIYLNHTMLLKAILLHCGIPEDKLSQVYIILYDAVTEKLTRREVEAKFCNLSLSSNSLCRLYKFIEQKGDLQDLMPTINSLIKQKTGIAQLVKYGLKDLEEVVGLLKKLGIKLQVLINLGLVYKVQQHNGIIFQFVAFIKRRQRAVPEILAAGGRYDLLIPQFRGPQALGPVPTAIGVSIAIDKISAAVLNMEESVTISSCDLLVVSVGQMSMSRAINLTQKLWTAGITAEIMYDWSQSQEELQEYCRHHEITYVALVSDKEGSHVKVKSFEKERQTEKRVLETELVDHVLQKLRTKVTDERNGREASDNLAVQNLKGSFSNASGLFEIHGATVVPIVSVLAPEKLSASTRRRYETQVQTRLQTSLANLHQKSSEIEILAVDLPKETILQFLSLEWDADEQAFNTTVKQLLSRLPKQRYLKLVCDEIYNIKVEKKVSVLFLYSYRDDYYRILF
Assay [10] concerns the target Phosphatidylinositol 4-phosphate 3-kinase C2 domain-containing subunit beta (Homo sapiens) (UniProt O00750). As to the kind of experiment: Selectivity interaction (KinomeScan (DiscoverX)) EUB0000296b PIK3C2B. The note with it: at 1 µM.
Assay [11] addresses T3, Gamma-aminobutyric acid receptor subunit alpha-1 (Homo sapiens, UniProt P14867).
T3 sequence (P14867 whole entry): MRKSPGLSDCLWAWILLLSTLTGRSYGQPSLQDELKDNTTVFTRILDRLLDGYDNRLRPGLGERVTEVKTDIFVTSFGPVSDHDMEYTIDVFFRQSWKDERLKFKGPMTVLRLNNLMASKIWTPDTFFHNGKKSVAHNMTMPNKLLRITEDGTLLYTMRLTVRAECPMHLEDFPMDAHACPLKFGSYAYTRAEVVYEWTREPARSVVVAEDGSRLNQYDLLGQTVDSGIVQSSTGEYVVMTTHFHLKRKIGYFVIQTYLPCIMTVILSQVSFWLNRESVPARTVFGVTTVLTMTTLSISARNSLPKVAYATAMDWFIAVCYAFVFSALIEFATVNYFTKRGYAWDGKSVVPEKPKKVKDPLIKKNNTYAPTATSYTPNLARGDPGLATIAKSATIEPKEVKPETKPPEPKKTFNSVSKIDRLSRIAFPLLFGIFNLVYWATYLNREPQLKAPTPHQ
As to the kind of experiment: Selectivity interaction (GPCR panel (PDSP screen)) EUB0000296b GABRA1.

For assay [12], the target named is Epidermal growth factor receptor (Homo sapiens, UniProt P00533). As to the kind of experiment: Selectivity interaction (MSD Pharma/Taiwan screen (enzymes and receptors) ) EUB0000296b EGFR.
In assay [13] the target is Protein kinase C epsilon type (Homo sapiens) (UniProt Q02156). As to the kind of experiment: Selectivity interaction (KinomeScan (DiscoverX)) EUB0000296b PRKCE. Particulars: at 1 µM.
In assay [14] the target is T2, Alpha-2C adrenergic receptor. As to the kind of experiment: Selectivity interaction (GPCR panel (PDSP screen)) EUB0000316b ADRA2C.
Assay [15] has as its target Cyclin-dependent kinase 4 (Homo sapiens) (UniProt P11802). As to the kind of experiment: Selectivity interaction (KinomeScan (DiscoverX)) EUB0000316b CDK4. Particulars: at 1 µM.
In assay [16] the target is Mitogen-activated protein kinase 8 (Homo sapiens, UniProt P45983). As to the kind of experiment: Selectivity interaction (KinomeScan (DiscoverX)) EUB0000316b MAPK8. Particulars: at 1 µM.
For assay [17], the target named is Serine/threonine-protein kinase WNK2 (Homo sapiens) (UniProt Q9Y3S1). As to the kind of experiment: Selectivity interaction (KinomeScan (DiscoverX)) EUB0000316b WNK2. The note with it: at 1 µM.
For assay [18], the target named is T3, Gamma-aminobutyric acid receptor subunit alpha-1. As to the kind of experiment: Selectivity interaction (GPCR panel (PDSP screen)) EUB0000316b GABRA1.
Assay [19] deals with Mitogen-activated protein kinase kinase kinase 14 (Homo sapiens) (UniProt Q99558). As to the kind of experiment: Selectivity interaction (KinomeScan (DiscoverX)) EUB0000316b MAP3K14. Particulars: at 1 µM.
Assay [20] addresses T4, Receptor-interacting serine/threonine-protein kinase 4 (Homo sapiens) (UniProt P57078).
T4 sequence (whole entry): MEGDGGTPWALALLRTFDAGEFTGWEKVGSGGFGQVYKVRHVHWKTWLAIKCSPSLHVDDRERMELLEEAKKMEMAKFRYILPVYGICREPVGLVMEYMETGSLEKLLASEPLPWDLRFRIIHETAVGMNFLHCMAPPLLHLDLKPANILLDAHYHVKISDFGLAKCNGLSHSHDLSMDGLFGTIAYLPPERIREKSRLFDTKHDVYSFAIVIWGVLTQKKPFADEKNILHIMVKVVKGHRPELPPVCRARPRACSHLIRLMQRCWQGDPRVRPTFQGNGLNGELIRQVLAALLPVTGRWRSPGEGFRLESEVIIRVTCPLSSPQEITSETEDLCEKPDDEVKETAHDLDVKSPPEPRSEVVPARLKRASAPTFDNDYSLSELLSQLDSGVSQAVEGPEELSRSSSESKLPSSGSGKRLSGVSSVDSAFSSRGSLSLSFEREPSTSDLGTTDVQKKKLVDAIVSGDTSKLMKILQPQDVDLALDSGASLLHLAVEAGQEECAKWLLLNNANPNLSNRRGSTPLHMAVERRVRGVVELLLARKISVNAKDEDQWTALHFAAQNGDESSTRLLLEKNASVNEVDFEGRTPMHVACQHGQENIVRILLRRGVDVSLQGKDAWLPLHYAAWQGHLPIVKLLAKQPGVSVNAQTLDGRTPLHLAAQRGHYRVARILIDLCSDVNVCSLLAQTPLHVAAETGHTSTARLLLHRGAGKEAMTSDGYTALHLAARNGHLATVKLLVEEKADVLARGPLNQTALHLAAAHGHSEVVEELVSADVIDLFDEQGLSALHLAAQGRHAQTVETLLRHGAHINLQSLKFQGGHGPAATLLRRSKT
As to the kind of experiment: Selectivity interaction (KinomeScan (DiscoverX)) EUB0000316b RIPK4. The note with it: at 1 µM.

Serine/threonine-protein kinase STK11 (Homo sapiens), sequence (Q15831 whole entry): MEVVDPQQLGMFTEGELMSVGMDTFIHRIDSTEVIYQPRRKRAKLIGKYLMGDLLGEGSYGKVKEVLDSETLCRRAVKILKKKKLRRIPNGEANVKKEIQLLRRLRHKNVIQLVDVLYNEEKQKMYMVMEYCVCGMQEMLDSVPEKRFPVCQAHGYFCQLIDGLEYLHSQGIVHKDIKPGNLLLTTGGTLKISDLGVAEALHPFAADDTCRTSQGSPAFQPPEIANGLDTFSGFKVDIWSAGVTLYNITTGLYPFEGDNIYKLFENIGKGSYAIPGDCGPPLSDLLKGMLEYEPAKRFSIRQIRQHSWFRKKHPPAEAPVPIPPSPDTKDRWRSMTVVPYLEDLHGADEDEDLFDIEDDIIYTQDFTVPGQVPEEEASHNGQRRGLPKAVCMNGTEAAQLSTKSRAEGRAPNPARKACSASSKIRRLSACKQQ
Phosphatidylinositol 4-phosphate 3-kinase C2 domain-containing subunit beta (Homo sapiens), sequence (O00750 whole entry, the tested form may be a part): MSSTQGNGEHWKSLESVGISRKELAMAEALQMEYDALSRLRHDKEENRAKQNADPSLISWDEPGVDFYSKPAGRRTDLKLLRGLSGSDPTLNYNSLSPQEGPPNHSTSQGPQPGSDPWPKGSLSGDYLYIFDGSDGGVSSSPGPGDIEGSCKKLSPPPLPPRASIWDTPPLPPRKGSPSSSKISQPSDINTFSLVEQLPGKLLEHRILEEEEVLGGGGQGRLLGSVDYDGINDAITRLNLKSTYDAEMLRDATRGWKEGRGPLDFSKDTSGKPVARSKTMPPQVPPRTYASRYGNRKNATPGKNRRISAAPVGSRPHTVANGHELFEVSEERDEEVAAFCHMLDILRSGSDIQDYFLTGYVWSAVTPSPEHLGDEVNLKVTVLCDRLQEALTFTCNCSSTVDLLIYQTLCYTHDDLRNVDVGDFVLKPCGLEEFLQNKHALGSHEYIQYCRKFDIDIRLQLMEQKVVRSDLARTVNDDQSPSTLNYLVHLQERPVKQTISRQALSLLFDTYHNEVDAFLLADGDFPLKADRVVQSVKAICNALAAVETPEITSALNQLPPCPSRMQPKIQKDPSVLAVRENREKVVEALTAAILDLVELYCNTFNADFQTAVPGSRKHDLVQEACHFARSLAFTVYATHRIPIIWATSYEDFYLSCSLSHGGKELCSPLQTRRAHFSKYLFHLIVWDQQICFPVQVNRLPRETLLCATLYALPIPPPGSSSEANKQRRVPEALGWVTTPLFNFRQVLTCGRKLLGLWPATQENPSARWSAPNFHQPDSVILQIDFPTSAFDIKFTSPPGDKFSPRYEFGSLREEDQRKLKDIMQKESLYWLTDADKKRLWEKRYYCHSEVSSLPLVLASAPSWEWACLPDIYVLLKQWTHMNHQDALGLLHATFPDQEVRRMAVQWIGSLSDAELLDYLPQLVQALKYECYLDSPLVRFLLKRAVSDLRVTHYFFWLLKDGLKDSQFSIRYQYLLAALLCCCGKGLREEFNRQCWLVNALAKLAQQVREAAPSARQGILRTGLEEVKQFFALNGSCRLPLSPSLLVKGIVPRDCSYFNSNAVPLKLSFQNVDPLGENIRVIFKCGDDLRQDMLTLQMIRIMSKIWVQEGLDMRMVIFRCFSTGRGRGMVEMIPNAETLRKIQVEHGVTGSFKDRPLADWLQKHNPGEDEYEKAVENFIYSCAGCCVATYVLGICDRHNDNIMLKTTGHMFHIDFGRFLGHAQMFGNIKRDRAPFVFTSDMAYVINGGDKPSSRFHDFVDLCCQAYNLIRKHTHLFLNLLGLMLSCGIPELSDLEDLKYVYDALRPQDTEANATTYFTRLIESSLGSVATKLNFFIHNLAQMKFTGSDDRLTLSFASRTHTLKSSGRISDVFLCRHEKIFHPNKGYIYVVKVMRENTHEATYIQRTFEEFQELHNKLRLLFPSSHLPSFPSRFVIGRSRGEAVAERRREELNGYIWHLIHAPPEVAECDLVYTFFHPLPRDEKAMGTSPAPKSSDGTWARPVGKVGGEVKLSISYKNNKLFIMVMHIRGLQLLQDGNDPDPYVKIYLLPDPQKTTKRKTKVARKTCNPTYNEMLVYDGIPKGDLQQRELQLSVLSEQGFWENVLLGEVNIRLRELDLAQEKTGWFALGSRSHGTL
Sodium-dependent dopamine transporter, sequence (Q01959 whole entry): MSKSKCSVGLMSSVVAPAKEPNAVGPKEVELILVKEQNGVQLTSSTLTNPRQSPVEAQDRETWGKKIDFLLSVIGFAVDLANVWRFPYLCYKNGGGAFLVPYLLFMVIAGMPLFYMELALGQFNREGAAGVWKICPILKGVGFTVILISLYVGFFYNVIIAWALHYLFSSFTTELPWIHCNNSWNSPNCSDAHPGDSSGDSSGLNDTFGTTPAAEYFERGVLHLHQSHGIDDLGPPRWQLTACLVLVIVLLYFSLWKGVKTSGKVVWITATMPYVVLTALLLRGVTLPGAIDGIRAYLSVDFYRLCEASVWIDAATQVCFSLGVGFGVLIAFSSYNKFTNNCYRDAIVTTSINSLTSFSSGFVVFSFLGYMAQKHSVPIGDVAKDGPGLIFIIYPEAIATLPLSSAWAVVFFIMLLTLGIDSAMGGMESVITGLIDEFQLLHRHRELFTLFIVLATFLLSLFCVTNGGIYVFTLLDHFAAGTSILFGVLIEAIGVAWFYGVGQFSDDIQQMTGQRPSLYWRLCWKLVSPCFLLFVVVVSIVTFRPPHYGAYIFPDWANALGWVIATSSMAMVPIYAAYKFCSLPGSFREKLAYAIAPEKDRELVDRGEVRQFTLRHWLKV

In the case of `CC(=O)Nc1c(C(C)=O)c(=O)n(C)c2nc(-c3ccc(Cl)cc3Cl)c(-c3ccc(Cl)cc3)cc12` [NAPHTHYRIDINONE], the Ki at Adenosine receptor A3 was 773 nM; in [1], 1130 nM; in assay [4] it was 648 nM; in [8], 799 nM; in assay [11], 82 nM. Moreover, the % of control in assay [2] amounted to 43%; in assay [5], 35%; in assay [9], 48%; in assay [10] it was 48%; in [13], 48%. Also, the IC50 stood at 1340 nM in [3], 8610 nM in assay [6], 3680 nM in assay [7] and 3260 nM in assay [12].
Consider `CC(=O)c1c(NS(C)(=O)=O)c2cc(-c3ccc(Cl)cc3)c(-c3ccc(Cl)cc3Cl)nc2n(C)c1=O` [MRL-CB1-NC], for which the Ki in [14] is more than 10000 nM; in [18], 1670 nM. In addition, the % of control in assay [15] was 63%; in assay [16], 63%; in assay [17], 62%; in [19] it was 63%; in assay [20] it was 61%.
